Experimental data: the supplement of paper PMC12076712

Key:
Assay in all cases: pIC50, kinobeads binding competition
[1] = molecular target: T1, BCR (UniProt P11274); details: cell material: Lysate mix
T1 sequence (whole entry): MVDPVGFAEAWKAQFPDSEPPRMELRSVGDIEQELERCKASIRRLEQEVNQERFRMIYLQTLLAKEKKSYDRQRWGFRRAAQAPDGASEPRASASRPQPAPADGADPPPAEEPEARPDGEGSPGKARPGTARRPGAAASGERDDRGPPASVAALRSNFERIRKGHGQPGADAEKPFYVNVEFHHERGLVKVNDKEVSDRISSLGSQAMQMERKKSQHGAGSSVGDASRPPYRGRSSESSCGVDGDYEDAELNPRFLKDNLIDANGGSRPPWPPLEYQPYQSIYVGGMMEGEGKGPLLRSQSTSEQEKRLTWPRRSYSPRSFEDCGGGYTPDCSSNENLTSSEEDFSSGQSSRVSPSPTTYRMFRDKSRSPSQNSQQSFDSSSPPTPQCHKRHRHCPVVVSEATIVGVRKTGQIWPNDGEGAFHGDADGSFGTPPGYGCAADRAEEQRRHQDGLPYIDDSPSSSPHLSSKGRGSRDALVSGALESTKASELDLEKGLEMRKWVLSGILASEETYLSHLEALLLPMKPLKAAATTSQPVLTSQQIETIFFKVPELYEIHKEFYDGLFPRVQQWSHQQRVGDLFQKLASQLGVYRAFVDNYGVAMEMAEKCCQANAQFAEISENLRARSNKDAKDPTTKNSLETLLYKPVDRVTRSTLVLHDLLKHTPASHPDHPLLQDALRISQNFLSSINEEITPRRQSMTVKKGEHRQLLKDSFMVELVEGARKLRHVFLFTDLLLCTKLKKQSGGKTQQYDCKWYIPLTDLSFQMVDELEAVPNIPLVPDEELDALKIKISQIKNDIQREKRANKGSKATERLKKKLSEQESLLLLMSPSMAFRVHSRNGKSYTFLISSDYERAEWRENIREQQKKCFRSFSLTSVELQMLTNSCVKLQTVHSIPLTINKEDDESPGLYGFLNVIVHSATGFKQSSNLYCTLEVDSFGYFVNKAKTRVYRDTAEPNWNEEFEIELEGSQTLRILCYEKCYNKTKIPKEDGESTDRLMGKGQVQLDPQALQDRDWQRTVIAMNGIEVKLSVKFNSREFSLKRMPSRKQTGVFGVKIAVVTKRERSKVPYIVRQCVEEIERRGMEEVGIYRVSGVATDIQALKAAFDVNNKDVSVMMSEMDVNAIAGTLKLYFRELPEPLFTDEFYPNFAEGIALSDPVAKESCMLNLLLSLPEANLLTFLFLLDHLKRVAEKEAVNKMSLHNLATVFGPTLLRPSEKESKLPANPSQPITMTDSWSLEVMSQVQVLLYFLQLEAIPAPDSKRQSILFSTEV
How it was run: (§1)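 Live Jurkat cells were treated with nine compound concentrations (top 30 μM, 1:4 steps) or DMSO for 60 min at 37 °C before lysis. Alternatively, Jurkat lysate or a 1:1:1:1 HEK293/K-562/HepG2/placenta lysate mix was incubated with nine concentrations (top 30 μM, 1:5 steps) for 60 min at 4 °C. Kinobeads-bound proteins were digested and quantified by TMT10 LC-MS/MS. pIC50 came from logistic dose-response fits (R drc package) of fold changes versus DMSO, in biological duplicates.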

[2] = molecular target: CDK8 (UniProt P49336)
How it was run: as §1

[3] = molecular target: T2, UniProt O00444
T2 sequence (whole entry): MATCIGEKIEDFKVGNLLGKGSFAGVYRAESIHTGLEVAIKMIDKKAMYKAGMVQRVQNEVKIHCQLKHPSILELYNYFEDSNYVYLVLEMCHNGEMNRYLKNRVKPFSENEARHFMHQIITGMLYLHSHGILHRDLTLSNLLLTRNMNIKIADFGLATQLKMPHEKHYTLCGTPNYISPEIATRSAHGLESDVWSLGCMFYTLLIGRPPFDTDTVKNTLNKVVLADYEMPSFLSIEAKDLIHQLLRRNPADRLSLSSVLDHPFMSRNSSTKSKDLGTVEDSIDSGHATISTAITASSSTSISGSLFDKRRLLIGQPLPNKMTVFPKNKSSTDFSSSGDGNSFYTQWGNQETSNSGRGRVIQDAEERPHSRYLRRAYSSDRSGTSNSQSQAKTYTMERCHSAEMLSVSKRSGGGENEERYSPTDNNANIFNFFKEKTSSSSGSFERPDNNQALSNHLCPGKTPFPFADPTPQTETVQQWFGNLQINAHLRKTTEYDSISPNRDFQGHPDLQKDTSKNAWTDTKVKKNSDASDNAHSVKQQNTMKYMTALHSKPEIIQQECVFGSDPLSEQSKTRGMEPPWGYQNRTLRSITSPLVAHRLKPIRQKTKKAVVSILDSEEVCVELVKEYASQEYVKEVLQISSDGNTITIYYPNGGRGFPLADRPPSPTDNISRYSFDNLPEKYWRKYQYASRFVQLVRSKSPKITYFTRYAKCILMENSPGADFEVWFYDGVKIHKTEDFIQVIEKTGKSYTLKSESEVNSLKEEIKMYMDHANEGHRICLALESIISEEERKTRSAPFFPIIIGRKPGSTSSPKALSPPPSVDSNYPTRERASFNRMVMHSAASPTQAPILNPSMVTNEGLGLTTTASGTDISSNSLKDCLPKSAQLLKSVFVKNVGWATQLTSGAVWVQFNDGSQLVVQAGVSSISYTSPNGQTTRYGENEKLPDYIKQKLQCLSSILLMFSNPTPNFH
How it was run: as §1

[4] = molecular target: T3, UniProt Q13188
T3 sequence (whole entry): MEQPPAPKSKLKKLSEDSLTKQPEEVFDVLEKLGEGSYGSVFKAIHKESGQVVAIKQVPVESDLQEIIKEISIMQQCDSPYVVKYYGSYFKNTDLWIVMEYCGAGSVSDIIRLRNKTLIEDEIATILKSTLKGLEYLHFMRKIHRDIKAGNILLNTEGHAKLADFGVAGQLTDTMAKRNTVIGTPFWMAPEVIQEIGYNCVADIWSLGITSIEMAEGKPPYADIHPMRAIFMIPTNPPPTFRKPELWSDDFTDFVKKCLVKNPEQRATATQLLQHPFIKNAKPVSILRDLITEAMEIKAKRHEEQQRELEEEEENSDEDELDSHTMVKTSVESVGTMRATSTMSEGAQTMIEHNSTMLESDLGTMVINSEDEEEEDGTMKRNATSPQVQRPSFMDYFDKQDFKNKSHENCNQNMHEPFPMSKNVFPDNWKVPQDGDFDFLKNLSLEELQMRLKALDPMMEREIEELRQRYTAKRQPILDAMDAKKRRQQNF
How it was run: as §1

[5] = molecular target: UniProt Q9HBH9
How it was run: as §1

Chain of CDK8 (P49336 whole entry): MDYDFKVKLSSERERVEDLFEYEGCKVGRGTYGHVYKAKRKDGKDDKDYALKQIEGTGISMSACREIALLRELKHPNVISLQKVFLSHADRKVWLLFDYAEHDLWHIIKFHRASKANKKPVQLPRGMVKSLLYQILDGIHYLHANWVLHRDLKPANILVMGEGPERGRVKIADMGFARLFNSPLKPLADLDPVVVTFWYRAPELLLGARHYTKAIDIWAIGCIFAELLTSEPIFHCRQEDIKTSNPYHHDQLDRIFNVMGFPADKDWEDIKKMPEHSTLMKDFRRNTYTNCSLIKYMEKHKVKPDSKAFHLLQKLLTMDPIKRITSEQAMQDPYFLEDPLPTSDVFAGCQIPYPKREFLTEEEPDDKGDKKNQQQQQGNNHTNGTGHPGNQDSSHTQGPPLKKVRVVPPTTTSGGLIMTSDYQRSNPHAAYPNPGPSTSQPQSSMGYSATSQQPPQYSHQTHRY
Chain of UniProt Q9HBH9 (Q9HBH9 whole entry, looked up): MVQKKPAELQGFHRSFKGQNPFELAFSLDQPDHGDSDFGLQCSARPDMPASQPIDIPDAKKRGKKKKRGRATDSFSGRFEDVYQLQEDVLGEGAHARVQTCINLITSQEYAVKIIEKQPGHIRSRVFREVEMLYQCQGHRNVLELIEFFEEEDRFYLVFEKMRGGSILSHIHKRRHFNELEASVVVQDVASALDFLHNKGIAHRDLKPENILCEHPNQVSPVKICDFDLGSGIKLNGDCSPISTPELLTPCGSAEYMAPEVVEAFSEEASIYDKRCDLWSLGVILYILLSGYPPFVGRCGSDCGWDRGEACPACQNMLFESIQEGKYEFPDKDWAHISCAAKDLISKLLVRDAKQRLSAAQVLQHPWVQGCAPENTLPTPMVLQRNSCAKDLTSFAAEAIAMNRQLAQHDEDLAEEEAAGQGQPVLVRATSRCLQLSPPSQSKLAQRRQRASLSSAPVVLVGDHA

Compound	pIC50 [1]	pIC50 ([2]; cell material: Jurkat cells)	pIC50 ([2]; cell material: Jurkat lysate)	pIC50 ([2]; cell material: Lysate mix)	pIC50 ([3]; cell material: Jurkat cells)	pIC50 ([3]; cell material: Jurkat lysate)	pIC50 ([3]; cell material: Lysate mix)	pIC50 ([4]; cell material: Jurkat cells)	pIC50 ([4]; cell material: Jurkat lysate)	pIC50 ([4]; cell material: Lysate mix)	pIC50 ([5]; cell material: Jurkat cells)	pIC50 ([5]; cell material: Jurkat lysate)	pIC50 ([5]; cell material: Lysate mix)
C#CCNC(=O)c1cc(Nc2cc(C3CC3)[nH]n2)nc(N2CCN(Cc3ccc(S(=O)(=O)F)cc3)CC2)n1	< 4.52	< 4.52	< 4.52	< 4.52	5.96	5.44	6.02	6.3	5.64	6.27	5.15	< 4.52	< 4.52
C#CCNC(=O)c1cc(Nc2cc(C)[nH]n2)nc(N2CCN(Cc3ccc(S(=O)(=O)F)cc3)CC2)n1	< 4.52	–	–	< 4.52	–	–	5.39	–	–	5.6	–	–	< 4.52
Cc1cc(Nc2cc(C(=O)NCCNC(=O)OC3CC/C=C/CCC3)nc(N3CCN(Cc4ccc(S(=O)(=O)F)cc4)CC3)n2)n[nH]1 (centres undefined)	< 4.52	–	–	< 4.52	–	–	< 4.52	–	–	< 4.52	–	–	< 4.52
O=C(NCCNC(=O)c1cc(Nc2cc(C3CC3)[nH]n2)nc(N2CCN(Cc3ccc(S(=O)(=O)F)cc3)CC2)n1)OC1CC/C=C/CCC1 (centres undefined)	< 4.52	< 4.52	< 4.52	< 4.52	5.5	< 4.52	< 4.52	5.6	–	< 4.52	–	< 4.52	< 4.52
CCNC(=O)c1cc(Nc2cc(C)[nH]n2)nc(N2CCN(Cc3ccc(S(=O)(=O)F)cc3)CC2)n1	< 4.52	–	–	< 4.52	–	–	5.97	–	–	5.64	–	–	< 4.52
CCNC(=O)c1cc(Nc2cc(C3CC3)[nH]n2)nc(N2CCN(Cc3ccc(S(=O)(=O)F)cc3)CC2)n1	< 4.52	–	–	< 4.52	–	–	5.81	–	–	5.94	–	–	< 4.52
